Earlier results as cited in patent US12343348B2, “Methods for treating subjects with Prader-Willi syndrome or Smith-Magenis syndrome” (Essentialis, Inc., priority 2014, dated 2025).

Columns and labels:
[1] = biological target: Kir6.2/SUR1 channel (Rattus norvegicus, UniProt Q09429); details: Dabrowski, et al., Diabetes 51 (2002)
[2] = biological target: T1, KATP channel (Homo sapiens, UniProt Q09428); details: patients with hyperinsulinism and patients with pancreatic insulinoma
T1 construct: host or cells: patients with hyperinsulinism or pancreatic insulinoma (endogenous channel)
T1 sequence (Q09428 whole entry): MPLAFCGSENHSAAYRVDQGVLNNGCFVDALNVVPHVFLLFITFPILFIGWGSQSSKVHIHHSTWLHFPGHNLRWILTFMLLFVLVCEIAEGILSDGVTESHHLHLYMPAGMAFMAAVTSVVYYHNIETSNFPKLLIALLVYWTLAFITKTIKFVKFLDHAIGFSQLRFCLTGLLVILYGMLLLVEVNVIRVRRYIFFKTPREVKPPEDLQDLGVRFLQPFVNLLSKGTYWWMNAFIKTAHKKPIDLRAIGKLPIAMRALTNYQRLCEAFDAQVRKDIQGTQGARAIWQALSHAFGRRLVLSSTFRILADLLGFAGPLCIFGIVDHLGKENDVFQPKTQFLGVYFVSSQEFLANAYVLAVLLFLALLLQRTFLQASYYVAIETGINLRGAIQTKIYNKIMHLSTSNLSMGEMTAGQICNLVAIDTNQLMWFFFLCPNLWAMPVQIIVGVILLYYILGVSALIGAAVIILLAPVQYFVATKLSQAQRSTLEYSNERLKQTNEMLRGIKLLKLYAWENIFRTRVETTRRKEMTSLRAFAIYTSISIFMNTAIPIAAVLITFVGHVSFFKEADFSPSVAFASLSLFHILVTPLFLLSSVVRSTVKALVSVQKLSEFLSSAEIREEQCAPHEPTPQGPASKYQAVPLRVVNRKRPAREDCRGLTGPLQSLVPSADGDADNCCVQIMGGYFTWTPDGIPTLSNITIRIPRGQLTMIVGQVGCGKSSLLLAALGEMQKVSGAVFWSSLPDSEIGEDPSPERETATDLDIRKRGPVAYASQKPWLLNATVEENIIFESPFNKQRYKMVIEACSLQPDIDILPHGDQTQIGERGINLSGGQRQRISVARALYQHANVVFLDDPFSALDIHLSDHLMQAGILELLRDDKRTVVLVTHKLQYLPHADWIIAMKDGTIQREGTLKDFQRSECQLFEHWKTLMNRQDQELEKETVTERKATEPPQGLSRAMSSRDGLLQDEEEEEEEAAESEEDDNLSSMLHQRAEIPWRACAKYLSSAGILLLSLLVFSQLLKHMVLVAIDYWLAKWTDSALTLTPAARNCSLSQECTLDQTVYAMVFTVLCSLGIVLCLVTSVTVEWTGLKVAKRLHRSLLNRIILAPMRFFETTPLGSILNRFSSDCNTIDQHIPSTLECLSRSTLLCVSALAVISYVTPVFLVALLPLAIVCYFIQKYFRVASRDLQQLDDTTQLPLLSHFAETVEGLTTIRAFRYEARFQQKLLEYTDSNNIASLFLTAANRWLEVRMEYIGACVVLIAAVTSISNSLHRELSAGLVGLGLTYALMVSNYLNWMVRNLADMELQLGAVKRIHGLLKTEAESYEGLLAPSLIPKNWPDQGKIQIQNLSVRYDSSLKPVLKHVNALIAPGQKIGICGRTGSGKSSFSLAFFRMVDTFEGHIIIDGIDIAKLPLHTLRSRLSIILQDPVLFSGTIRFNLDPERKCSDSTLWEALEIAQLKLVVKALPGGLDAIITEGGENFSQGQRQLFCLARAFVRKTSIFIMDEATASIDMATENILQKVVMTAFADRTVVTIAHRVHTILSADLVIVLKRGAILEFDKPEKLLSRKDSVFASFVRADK
T1 sequence (Q14654 whole entry partner): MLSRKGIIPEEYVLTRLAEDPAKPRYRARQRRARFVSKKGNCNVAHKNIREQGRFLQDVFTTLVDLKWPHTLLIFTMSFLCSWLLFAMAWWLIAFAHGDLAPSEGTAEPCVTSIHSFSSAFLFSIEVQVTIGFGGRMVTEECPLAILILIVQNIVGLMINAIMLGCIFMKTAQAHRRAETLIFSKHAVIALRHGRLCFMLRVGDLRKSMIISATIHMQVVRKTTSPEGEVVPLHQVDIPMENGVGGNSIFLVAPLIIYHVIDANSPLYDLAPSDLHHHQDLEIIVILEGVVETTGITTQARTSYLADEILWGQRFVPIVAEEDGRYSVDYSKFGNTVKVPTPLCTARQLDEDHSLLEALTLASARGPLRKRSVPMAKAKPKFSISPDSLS

Kir6.2/SUR1 channel, sequence (Q09429 whole entry): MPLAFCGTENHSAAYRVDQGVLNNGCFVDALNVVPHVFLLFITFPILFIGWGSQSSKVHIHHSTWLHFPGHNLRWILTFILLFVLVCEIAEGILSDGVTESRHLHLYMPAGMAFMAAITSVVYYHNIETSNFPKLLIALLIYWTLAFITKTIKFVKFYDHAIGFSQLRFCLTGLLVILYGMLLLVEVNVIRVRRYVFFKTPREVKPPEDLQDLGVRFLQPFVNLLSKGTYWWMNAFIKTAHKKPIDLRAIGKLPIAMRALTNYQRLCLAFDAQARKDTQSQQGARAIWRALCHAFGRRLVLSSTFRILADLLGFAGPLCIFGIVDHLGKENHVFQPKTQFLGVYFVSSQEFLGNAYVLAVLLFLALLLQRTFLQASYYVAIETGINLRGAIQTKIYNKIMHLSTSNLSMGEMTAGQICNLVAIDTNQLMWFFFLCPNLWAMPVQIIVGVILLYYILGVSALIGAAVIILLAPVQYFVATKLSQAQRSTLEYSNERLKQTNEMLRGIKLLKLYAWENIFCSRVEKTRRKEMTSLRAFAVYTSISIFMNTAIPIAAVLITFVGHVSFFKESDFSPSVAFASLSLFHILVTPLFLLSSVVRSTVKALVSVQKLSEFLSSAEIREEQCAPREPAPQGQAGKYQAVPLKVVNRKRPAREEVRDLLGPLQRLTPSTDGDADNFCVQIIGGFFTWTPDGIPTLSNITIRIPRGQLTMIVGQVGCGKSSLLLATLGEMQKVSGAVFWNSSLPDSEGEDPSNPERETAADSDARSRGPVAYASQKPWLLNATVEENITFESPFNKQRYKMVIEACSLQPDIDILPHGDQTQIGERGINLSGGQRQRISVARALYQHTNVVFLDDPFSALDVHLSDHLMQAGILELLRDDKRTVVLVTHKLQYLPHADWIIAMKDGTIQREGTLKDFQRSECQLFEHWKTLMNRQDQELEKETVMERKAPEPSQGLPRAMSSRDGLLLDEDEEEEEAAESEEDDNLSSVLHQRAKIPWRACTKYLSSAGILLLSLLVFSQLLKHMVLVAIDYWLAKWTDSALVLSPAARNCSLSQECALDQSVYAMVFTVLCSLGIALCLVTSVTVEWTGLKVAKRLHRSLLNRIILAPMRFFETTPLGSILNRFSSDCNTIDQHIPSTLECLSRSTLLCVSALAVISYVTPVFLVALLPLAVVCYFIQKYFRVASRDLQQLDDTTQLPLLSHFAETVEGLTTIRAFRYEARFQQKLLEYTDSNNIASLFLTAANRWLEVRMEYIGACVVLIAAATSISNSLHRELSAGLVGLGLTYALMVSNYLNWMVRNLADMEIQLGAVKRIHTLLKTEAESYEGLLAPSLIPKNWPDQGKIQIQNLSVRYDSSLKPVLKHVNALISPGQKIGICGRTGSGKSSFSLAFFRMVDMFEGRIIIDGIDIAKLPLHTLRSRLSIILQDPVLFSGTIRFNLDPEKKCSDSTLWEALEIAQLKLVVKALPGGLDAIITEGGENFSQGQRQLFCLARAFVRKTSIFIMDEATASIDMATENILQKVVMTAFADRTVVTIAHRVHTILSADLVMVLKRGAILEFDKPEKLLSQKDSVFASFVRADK
Kir6.2/SUR1 channel, sequence (Q61743 whole entry partner): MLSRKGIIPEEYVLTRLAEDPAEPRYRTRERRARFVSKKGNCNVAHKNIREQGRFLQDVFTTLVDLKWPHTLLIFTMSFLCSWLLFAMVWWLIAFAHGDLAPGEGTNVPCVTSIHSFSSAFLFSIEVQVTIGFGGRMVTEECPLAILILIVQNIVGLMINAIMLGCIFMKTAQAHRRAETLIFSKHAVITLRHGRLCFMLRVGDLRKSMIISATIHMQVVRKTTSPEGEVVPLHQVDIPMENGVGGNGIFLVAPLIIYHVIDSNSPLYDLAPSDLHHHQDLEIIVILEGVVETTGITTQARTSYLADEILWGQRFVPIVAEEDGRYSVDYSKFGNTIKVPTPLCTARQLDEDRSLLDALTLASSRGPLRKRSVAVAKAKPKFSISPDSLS

Row | Structure (SMILES) | KATP channel opener selectivity [1] | KATP channel activation [2]
1 | COc1ccc2c(c1)S(=O)(=O)N=C(NC(C)C)N2 [3-isopropylamino-7-methoxy-4H-1,2,4,-benzothiadiazine 1,1-dioxide] | selective Kir6.2/SUR1 channel opener | 
2 | CC(C)N=C1Nc2cc(Cl)c(Cl)cc2S(=O)(=O)N1 [BPDZ 154] |  | effective KATP channel activator
